# Experimental data published in patent US8791102B2, “Acetanilide sphingosine-1-phosphate receptor antagonists” (Exelixis, Inc., priority 2008, dated 2014).
# Target: T1, human S1P1 receptors (Homo sapiens, UniProt P21453)
# T1 construct: host or cells: HEK293
# Test: S1P1R antagonist assay (fluorescent membrane potential dye, cAMP readout)
# Format: cell-based
# Conditions: HEK293 cells expressing human S1P1 receptors and CNG channel; 500 nM NECA; S1P1R agonist 10 nM; 90 minutes; read-out: EC50 or IC50 value
# T1 sequence (P21453 whole entry): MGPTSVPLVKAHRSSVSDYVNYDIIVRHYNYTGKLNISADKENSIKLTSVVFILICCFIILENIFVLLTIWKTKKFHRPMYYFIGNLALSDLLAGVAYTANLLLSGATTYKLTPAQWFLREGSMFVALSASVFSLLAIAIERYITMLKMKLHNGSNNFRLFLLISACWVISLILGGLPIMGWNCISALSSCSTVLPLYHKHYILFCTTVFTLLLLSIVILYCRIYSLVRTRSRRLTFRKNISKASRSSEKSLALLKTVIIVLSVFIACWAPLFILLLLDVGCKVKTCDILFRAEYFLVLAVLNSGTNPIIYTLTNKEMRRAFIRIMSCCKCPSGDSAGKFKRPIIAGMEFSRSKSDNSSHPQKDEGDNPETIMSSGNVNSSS
row,IC50 [nM],SMILES
1,> 1000,"O=C(CN1CCN(c2ncccc2C(F)(F)F)CC1)N[C@@H](COCc1ccccc1)C(=O)Nc1ccc(Oc2ccc(F)cc2)cc1 [Compound 112, (S)-3-(benzyloxy)-N-(4-(4-fluorophenoxy)phenyl)-2-(2-(4-(3-(trifluoromethyl)pyridin-2-yl)piperazin-1-yl)acetamido)propanamide]"
2,≤ 300,"CC(=O)Nc1nc(C)c(S(=O)(=O)NC(COCc2ccccc2)C(=O)Nc2ccc(Oc3ccccc3)cc2)s1 (stereo not shown) [Compound 305, N-(2-oxo-1-{[(phenylmethyl)oxy]methyl}-2-{[4-(phenyloxy)phenyl]amino}ethyl)-2-acetylamino-4-methylthiazol-5-ylsulfonamide]"
3,> 1000,"CC1CCCN1CC(=O)N[C@@H](COCc1ccccc1)C(=O)Nc1ccc(Oc2ccc(F)cc2)cc1 (stereo partly drawn) [Compound 63, (2S)-3-(benzyloxy)-N-(4-(4-fluorophenoxy)phenyl)-2-(2-(2-methylpyrrolidin-1-yl)acetamido)propanamide]"
4,> 1000,"O=C(CCCC(=O)c1ccccc1)NC(COCc1ccccc1)C(=O)Nc1ccc(Oc2ccccc2)cc1 (stereo not shown) [Compound 318, 5-oxo-N-(2-oxo-1-{[(phenylmethyl)oxy]methyl}-2-{[4-(phenyloxy)phenyl]amino}ethyl)-5-phenylpentanamide]"
5,≤ 300,"O=C(Nc1ccc(Oc2ccc(F)cc2)cc1)[C@@H]1C[C@@H](Cc2ccc(F)cc2)CN1C(=O)Cn1nccn1 [Compound 50, (2S,4R)-1-(2-(2H-1,2,3-triazol-2-yl)acetyl)-4-(4-fluorobenzyl)-N-(4-(4-fluorophenoxy)phenyl)pyrrolidine-2-carboxamide]"
6,> 1000,"O=C(NC(COCc1ccccc1)C(=O)Nc1ccc(Oc2ccccc2)cc1)C1CC(=O)N(Cc2ccc(Cl)cc2)C1 (stereo not shown) [Compound 29, N-(3-(benzyloxy)-1-oxo-1-(4-phenoxyphenylamino)propan-2-yl)-1-(4-chlorobenzyl)-5-oxopyrrolidine-3-carboxamide]"
7,≤ 300,"O=C(Nc1ccc(Oc2ccc(F)cc2)cc1)[C@@H]1C[C@@H](Cc2ccccc2)CN1C(=O)C1CCCO1 (stereo partly drawn) [Compound 92, (2S,4R)-4-benzyl-N-(4-(4-fluorophenoxy)phenyl)-1-(tetrahydrofuran-2-carbonyl)pyrrolidine-2-carboxamide]"
8,300 to 1000,"O=C(NC(COCc1ccccc1)C(=O)Nc1ccc(Oc2ccccc2)cc1)c1cn[nH]c1 (stereo not shown) [Compound 355, N-(2-oxo-1-{[(phenylmethyl)oxy]methyl}-2-{[4-(phenyloxy)phenyl]amino}ethyl)-1H-pyrazole-4-carboxamide]"
9,≤ 300,"O=C(Nc1ccc(Oc2ccc(F)cc2)cc1)[C@@H]1C[C@@H](Cc2ccccc2C(F)(F)F)CN1C(=O)Cn1cncn1 [Compound 54, (2S,4R)-1-(2-(1H-1,2,4-triazol-1-yl)acetyl)-N-(4-(4-fluorophenoxy)phenyl)-4-(2-(trifluoromethyl)benzyl)pyrrolidine-2-carboxamide]"
10,≤ 300,"O=C(CCC(=O)N1C[C@H](Cc2ccccc2)C[C@H]1C(=O)Nc1ccc(Oc2ccc(F)cc2)cc1)c1ccccc1 [Compound 124, (2S,4R)-4-benzyl-N-(4-(4-fluorophenoxy)phenyl)-1-(4-oxo-4-phenylbutanoyl)pyrrolidine-2-carboxamide]"
11,300 to 1000,"O=C(Cc1cc(Cl)ccc1F)NC(COCc1ccccc1)C(=O)Nc1ccc(Oc2ccccc2)cc1 (stereo not shown) [Compound 192, 3-(benzyloxy)-2-(2-(5-chloro-2-fluorophenyl)acetamido)-N-(4-phenoxyphenyl)propanamide]"
12,300 to 1000,"C[C@@H](C(=O)NC(COCc1ccccc1)C(=O)Nc1ccc(Oc2ccccc2)cc1)c1ccccc1 (stereo partly drawn) [Compound 354, N-(2-oxo-1-{[(phenylmethyl)oxy]methyl}-2-{[4-(phenyloxy)phenyl]amino}ethyl)-2R-phenylpropanamide]"
13,> 1000,"CC1CCN(CC(=O)N[C@@H](COCc2ccccc2)C(=O)Nc2ccc(Oc3ccc(F)cc3)cc2)CC1 [Compound 130, (S)-3-(benzyloxy)-N-(4-(4-fluorophenoxy)phenyl)-2-(2-(4-methylpiperidin-1-yl)acetamido)propanamide]"
14,> 1000,"O=C(Nc1ccc(Oc2ccccc2)cc1)C(COCc1ccccc1)NC(=O)[C@H]1CCCO1 (stereo partly drawn) [Compound 23, (2R)—N-(3-(benzyloxy)-1-oxo-1-(4-phenoxyphenylamino)propan-2-yl)tetrahydrofuran-2-carboxamide]"
15,≤ 300,"O=C(Nc1ccc(Oc2ccc(F)cc2)cc1)[C@@H]1C[C@@H](Cc2ccc(Cl)s2)CN1C(=O)Cn1ccnn1 [Compound 65, (2S,4S)-1-(2-(1H-1,2,3-triazol-1-yl)acetyl)-4-((5-chlorothien-2-yl)methyl)-N-(4-(4-fluorophenoxy)phenyl)pyrrolidine-2-carboxamide]"
16,≤ 300,"O=C(NC(COCc1ccccc1)C(=O)Nc1ccc(Oc2ccccc2)cc1)C1CCOC1 (stereo not shown) [Compound 336, N-(2-oxo-1-{[(phenylmethyl)oxy]methyl}-2-{[4-(phenyloxy)phenyl]amino}ethyl)tetrahydrofuran-3-carboxamide]"
17,> 1000,"O=C(Cc1ccccc1Cl)NC(COCc1ccccc1)C(=O)Nc1ccc(Oc2ccccc2)cc1 (stereo not shown) [Compound 391, N-(2-oxo-1-{[(phenylmethyl)oxy]methyl}-2-{[4-(phenyloxy)phenyl]amino}ethyl)-2-(2-chlorophenyl)acetamide]"
18,> 1000,"Cc1cc(Br)ccc1C(=O)NC(COCc1ccccc1)C(=O)Nc1ccc(Oc2ccccc2)cc1 (stereo not shown) [Compound 311, 4-bromo-2-methyl-N-(2-oxo-1-{[(phenylmethyl)oxy]methyl}-2-{[4-(phenyloxy)phenyl]amino}ethyl)benzamide]"
19,≤ 300,"O=C(Nc1ccc(Oc2ccc(F)cc2)cc1)[C@@H]1C[C@@H](Cc2ccccc2)CN1C(=O)Cc1ccccc1 [Compound 31, (2S,4R)-4-benzyl-N-(4-(4-fluorophenoxy)phenyl)-1-(2-phenylacetyl)pyrrolidine-2-carboxamide]"
20,≤ 300,"O=C(Cc1cnc[nH]1)N[C@@H](CCCc1ccccc1)C(=O)Nc1ccc(Oc2ccccc2)cc1 [Compound 1, (S)-2-(2-(1H-imidazol-5-yl)acetamido)-5-phenyl-N-(4-phenoxyphenyl)pentanamide]"
21,> 1000,"O=C(Cc1c(F)ccc(F)c1F)NC(COCc1ccccc1)C(=O)Nc1ccc(Oc2ccccc2)cc1 (stereo not shown) [Compound 361, N-(2-oxo-1-{[(phenylmethyl)oxy]methyl}-2-{[4-(phenyloxy)phenyl]amino}ethyl)-2-(2,3,6-trifluorophenyl)acetamide]"
22,300 to 1000,"O=C(NC(COCc1ccccc1)C(=O)Nc1ccc(Oc2ccccc2)cc1)c1cccc2[nH]ccc12 (stereo not shown) [Compound 184, N-(3-(benzyloxy)-1-oxo-1-(4-phenoxyphenylamino)propan-2-yl)-1H-indole-4-carboxamide]"
23,≤ 300,"COc1cccc(C[C@@H]2C[C@@H](C(=O)Nc3ccc(Oc4ccc(F)cc4)cc3)N(C(=O)Cn3cncn3)C2)c1 [Compound 70, (2S,4R)-1-(2-(1H-1,2,4-triazol-1-yl)acetyl)-N-(4-(4-fluorophenoxy)phenyl)-4-(3-methoxybenzyl)pyrrolidine-2-carboxamide]"
24,≤ 300,"CC(=O)CCC(=O)N1C[C@H](Cc2ccccc2)C[C@H]1C(=O)Nc1ccc(Oc2ccc(F)cc2)cc1 [Compound 123, (2S,4R)-4-benzyl-N-(4-(4-fluorophenoxy)phenyl)-1-(4-oxopentanoyl)pyrrolidine-2-carboxamide]"
25,> 1000,"O=C(NC(COCc1ccccc1)C(=O)Nc1ccc(Oc2ccccc2)cc1)c1cccnc1Cl (stereo not shown) [Compound 296, 2-chloro-N-(2-oxo-1-{[(phenylmethyl)oxy]methyl}-2-{[4-(phenyloxy)phenyl]amino}ethyl)pyridine-3-carboxamide]"
